Test results reported in patent US8501446B2 (Vertex Pharmaceuticals Incorporated, priority 2004, dated 2013).

Columns and labels:
[1] = molecular target: T1, full length Aurora-A (AA 1-403) (Homo sapiens, UniProt O14965); experiment: Aurora-A inhibition assay, standard coupled enzyme system; type: biochemical; conditions: average Ki if more than one value determined
T1 construct: full length Aurora-A (AA 1-403)
T1 sequence (O14965 1-403): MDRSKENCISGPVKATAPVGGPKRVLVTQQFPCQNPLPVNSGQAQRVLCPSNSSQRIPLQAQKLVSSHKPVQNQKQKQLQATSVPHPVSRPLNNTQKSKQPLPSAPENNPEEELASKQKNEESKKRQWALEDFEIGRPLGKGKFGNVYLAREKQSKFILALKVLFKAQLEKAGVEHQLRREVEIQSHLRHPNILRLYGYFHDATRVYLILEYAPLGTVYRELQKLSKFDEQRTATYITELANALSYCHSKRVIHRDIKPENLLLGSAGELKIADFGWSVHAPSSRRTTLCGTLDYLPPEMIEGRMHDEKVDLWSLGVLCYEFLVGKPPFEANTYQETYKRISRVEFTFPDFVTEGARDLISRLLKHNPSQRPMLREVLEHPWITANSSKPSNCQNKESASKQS
Description: Compounds were screened for their ability to inhibit full length Aurora-A (AA 1-403) activity using a standard coupled enzyme system (Fox et al., Protein Sci. 7, pp. 2249 (1998)). Reactions were carried out in a solution containing 100 mM HEPES (pH 7.5), 10 mM MgCl2, 25 mM NaCl, 300 μM NADH, 1 mM DTT and 3% DMSO. Final substrate concentrations in the assay were 200 μM ATP (Sigma Chemicals, St Louis, Mo.) and 800 μM peptide (LRRASLG, American Peptide, Sunnyvale, Calif.). Reactions were carried out at 30° C. and 35 nM Aurora-A. Final concentrations of the components of the coupled enzyme system were 2.5 mM phosphoenolpyruvate, 200 μM NADH, 60 μg/ml pyruvate kinase and 20 μg/ml lactate dehydrogenase.
An assay stock buffer solution was prepared containing all of the reagents listed above with the exception of ATP and the test compound of interest. The assay stock buffer solution (60 μl) was incubated in a 96 well plate with 2 μl of the test compound of interest at final concentrations spanning 0.002 μM to 30 μM at 30° C. for 10 min. Typically, a 12 point titration was conducted by preparing serial dilutions (from 1 mM compound stocks) with DMSO of the test compounds in daughter plates. The reaction was initiated by the addition of 5 μl of ATP (final concentration 200 μM). Rates of reaction were obtained using a Molecular Devices Spectramax plate reader (Sunnyvale, Calif.) over 10 min at 30° C. The Ki values were determined from the rate data as a function of inhibitor concentration using computerized nonlinear regression (Prism 3.0, Graphpad Software, San Diego, Calif.). Aurora-C activity was screened in a similar manner using Aurora-C protein. Aurora-B activity was screened using a radioactive assay, such as described in Examples 1 and 2, but using Aurora-B protein.

ROCK I (AA 6-553) = molecular target: T2, ROCK I (AA 6-553) (Homo sapiens, UniProt Q13464); experiment: ROCK inhibition assay, standard coupled enzyme system ("Enzyme"); type: biochemical; conditions: enzyme-linked assay
T2 construct: ROCK I (AA 6-553)
Description: Compounds were screened for their ability to inhibit ROCK I (AA 6-553) activity using a standard coupled enzyme system (Fox et al. (1998) Protein Sci. 7, 2249). Reactions were carried out in a solution containing 100 mM HEPES (pH 7.5), 10 mM MgCl2, 25 mM NaCl, 2 mM DTT and 1.5% DMSO. Final substrate concentrations in the assay were 45 μM ATP (Sigma Chemicals, St Louis, Mo.) and 200 μM peptide (American Peptide, Sunnyvale, Calif.). Reactions were carried out at 30° C. and 45 nM ROCK L. Final concentrations of the components of the coupled enzyme system were 2.5 mM phosphoenolpyruvate, 350 μM NADH, 30 μg/ml pyruvate kinase and 10 μg/ml lactate dehydrogenase.

T2 sequence (Q13464 6-553, species assumed): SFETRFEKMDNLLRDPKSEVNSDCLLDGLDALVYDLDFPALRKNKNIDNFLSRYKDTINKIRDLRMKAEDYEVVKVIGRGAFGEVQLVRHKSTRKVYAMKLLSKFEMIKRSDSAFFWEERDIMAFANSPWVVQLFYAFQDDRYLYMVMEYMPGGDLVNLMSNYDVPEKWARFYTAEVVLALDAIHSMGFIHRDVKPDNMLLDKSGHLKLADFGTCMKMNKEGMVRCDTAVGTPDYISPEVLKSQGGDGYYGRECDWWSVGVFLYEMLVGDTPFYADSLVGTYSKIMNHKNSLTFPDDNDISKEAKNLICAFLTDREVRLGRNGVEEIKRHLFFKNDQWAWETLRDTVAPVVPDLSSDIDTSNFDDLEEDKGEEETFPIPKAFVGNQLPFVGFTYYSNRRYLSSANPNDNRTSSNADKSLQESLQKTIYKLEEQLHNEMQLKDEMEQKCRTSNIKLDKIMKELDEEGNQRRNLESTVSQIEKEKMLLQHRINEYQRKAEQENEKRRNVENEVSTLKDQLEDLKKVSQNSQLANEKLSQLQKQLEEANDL

| Ki [1] [nM] | Ki (ROCK I (AA 6-553)) [nM] | SMILES |
| --- | --- | --- |
| 500 to 5000 |  | C[Si](C)(C)c1[nH]c2ncc(-c3ccccc3)cc2c1-c1ccccc1 [Compound 210] |
| 500 to 5000 | 500 to 5000 | CCCCNC(=O)c1cccc(-c2c[nH]c3ncc(-c4ccccc4)cc23)c1 [Compound 220] |
| < 500 | < 500 | CS(=O)(=O)c1cccc(-c2c[nH]c3ncc(-c4ccc(F)cc4)cc23)c1 [Compound 221] |
| < 500 | < 500 | COc1ccc(-c2c[nH]c3ncc(-c4ccc(F)cc4)cc23)cc1OC [Compound 222] |
| 500 to 5000 | 500 to 5000 | Fc1ccc(-c2cnc3[nH]cc(-c4ccc(F)cc4)c3c2)cc1 [Compound 223] |
| < 500 | < 500 | COc1ccc(-c2c[nH]c3ncc(-c4ccc(F)cc4)cc23)cc1 [Compound 224] |
| 500 to 5000 | 500 to 5000 | O=C(c1cccc(-c2c[nH]c3ncc(-c4cc(Cl)cc(Cl)c4)cc23)c1)N1CCOCC1 [Compound 225] |
| 500 to 5000 |  | CCNC(=O)c1cccc(-c2c[nH]c3ncc(-c4cc(Cl)cc(Cl)c4)cc23)c1 [Compound 226] |
| < 500 | < 500 | NC(=O)c1ccc(-c2c[nH]c3ncc(-c4ccc(F)cc4)cc23)cc1 [Compound 227] |
| < 500 | < 500 | NC(=O)c1cccc(-c2c[nH]c3ncc(-c4ccc(F)cc4)cc23)c1 [Compound 228] |
| < 500 | 500 to 5000 | O=Cc1ccc(-c2c[nH]c3ncc(-c4ccccc4)cc23)cc1 [Compound 229] |
| 500 to 5000 | 500 to 5000 | CC(=O)NCc1ccc(-c2c[nH]c3ncc(-c4ccccc4)cc23)cc1 [Compound 230] |
| < 500 | < 500 | CC(=O)c1ccc(-c2c[nH]c3ncc(-c4ccccc4)cc23)cc1 [Compound 231] |
| < 500 | 500 to 5000 | Nc1ccc(-c2c[nH]c3ncc(-c4ccccc4)cc23)cc1 [Compound 232] |
|  | 500 to 5000 | CNS(=O)(=O)c1ccc(-c2c[nH]c3ncc(-c4ccccc4)cc23)cc1 [Compound 233] |
| < 500 |  | CS(=O)(=O)Nc1ccc(-c2c[nH]c3ncc(-c4ccccc4)cc23)cc1 [Compound 234] |
| < 500 | < 500 | NC(=O)c1ccc(-c2c[nH]c3ncc(-c4ccoc4)cc23)cc1 [Compound 235] |
| < 500 |  | NC(=O)c1ccc(-c2c[nH]c3ncc(-c4ccsc4)cc23)cc1 [Compound 236] |
| < 500 | < 500 | COc1cccc(-c2cnc3[nH]cc(-c4ccc(C(N)=O)cc4)c3c2)c1 [Compound 239] |
| < 500 | 500 to 5000 | Clc1cnc2[nH]cc(-c3cccc(Br)n3)c2c1 [Compound 240] |
| 500 to 5000 |  | Clc1cnc2[nH]cc(-c3cccc(N4CCCC4)n3)c2c1 [Compound 241] |

| Ki [1] [nM] | Ki (ROCK I (AA 6-553)) [nM] | SMILES |
| --- | --- | --- |
| < 500 | 500 to 5000 | Clc1cnc2[nH]cc(-c3cccc(Nc4ccccc4)n3)c2c1 [Compound 243] |
| 500 to 5000 | 500 to 5000 | Clc1ccc(CNc2cccc(-c3c[nH]c4ncc(Cl)cc34)n2)c(Cl)c1 [Compound 244] |
| < 500 |  | CC(C)(C)OC(=O)N(Cc1ccc(S(C)(=O)=O)cc1)c1cccc(-c2c[nH]c3ncc(Cl)cc23)n1 [Compound 245] |
| 500 to 5000 | 500 to 5000 | Nc1cccc(-c2c[nH]c3ncc(Cl)cc23)n1 [Compound 246] |
| < 500 | 500 to 5000 | CS(=O)(=O)c1ccc(CNc2cccc(-c3c[nH]c4ncc(Cl)cc34)n2)cc1 [Compound 247] |
| < 500 | 500 to 5000 | Clc1cnc2[nH]cc(-c3cccc(Sc4ccccc4Cl)n3)c2c1 [Compound 248] |
| < 500 | 500 to 5000 | O=C(Nc1cccc(-c2c[nH]c3ncc(Cl)cc23)n1)c1ccccc1 [Compound 249] |
| < 500 | 500 to 5000 | CC(C)(C)OC(=O)Nc1cccc(-c2c[nH]c3ncc(Cl)cc23)n1 [Compound 250] |
| 500 to 5000 |  | Nc1cccc(-c2c[nH]c3ncc(-c4ccccc4)cc23)n1 [Compound 268] |
| < 500 |  | c1ccc(CNc2cccc(-c3c[nH]c4ncc(-c5ccccc5)cc34)n2)cc1 [Compound 269] |
| 500 to 5000 |  | CNc1cccc(-c2c[nH]c3ncccc23)n1 [Compound 272] |
| 500 to 5000 |  | CC(C)C(=O)Nc1cccc(-c2c[nH]c3ncc(Cl)cc23)n1 [Compound 279] |
| < 500 |  | O=C(Cc1ccccc1)Nc1cccc(-c2c[nH]c3ncc(Cl)cc23)n1 [Compound 280] |
| < 500 |  | O=C(Nc1cccc(-c2c[nH]c3ncc(Cl)cc23)n1)c1ccccc1Cl [Compound 281] |
| < 500 |  | O=C(Nc1cccc(-c2c[nH]c3ncc(Cl)cc23)n1)c1cccc(Cl)c1 [Compound 282] |
| 500 to 5000 |  | CC(=O)Nc1cccc(-c2c[nH]c3ncc(Cl)cc23)n1 [Compound 283] |
| < 500 |  | c1ccc(-c2cnc3[nH]cc(-c4cccc(NC5CCCCC5)n4)c3c2)cc1 [Compound 287] |
| < 500 |  | O=C(Nc1cccc(-c2c[nH]c3ncc(Cl)cc23)n1)C1CCCCC1 [Compound 288] |
|  | < 500 | NC(=O)c1ccc(-c2c[nH]c3ncc(CCc4ccccc4)cc23)cc1 [Compound 303] |
|  | 500 to 5000 | NC(=O)c1ccc(-c2c[nH]c3ncc(Sc4ccccc4)cc23)cc1 [Compound 304] |
| 500 to 5000 |  | Fc1cnc(-c2c[nH]c3ncc(Cl)cc23)nc1OCc1ccc(Cl)cc1 [Compound 314] |

| Ki [1] [nM] | Ki (ROCK I (AA 6-553)) [nM] | SMILES |
| --- | --- | --- |
| 500 to 5000 |  | Clc1cnc2[nH]cc(-c3ncccn3)c2c1 [Compound 319] |
| < 500 |  | C[C@H](Nc1nc(-c2c[nH]c3ncc(Cl)cc23)ncc1F)c1cccc(OCCN(C)C)c1 [Compound 320] |
| < 500 |  | Nc1nc(-c2c[nH]c3ncc(Cl)cc23)ncc1F [Compound 332] |
| < 500 |  | C[C@H](Nc1nc(-c2c[nH]c3ncc(CO)cc23)ncc1F)c1ccc(F)cc1 [Compound 334] |
| 500 to 5000 |  | C[C@H](Nc1nc(-c2c[nH]c3ncc(N)cc23)ncc1F)c1ccc(F)cc1 [Compound 343] |
| 500 to 5000 |  | C[C@H](Nc1nc(-c2c[nH]c3ncc(C(=O)N(C)C)cc23)ncc1F)c1ccc(F)cc1 [Compound 346] |
| 500 to 5000 |  | C[C@H](Nc1nc(-c2c[nH]c3ncc(C(=O)O)cc23)ncc1F)c1ccc(F)cc1 [Compound 350] |
| < 500 |  | CN1CCC(Nc2nc(-c3c[nH]c4ncc(Cl)cc34)ncc2F)C1 (centres unmarked) [Compound 352] |
|  | 500 to 5000 | N#Cc1ccnc(-c2c[nH]c3ncc(Cl)cc23)c1 [Compound 353] |
| 500 to 5000 |  | CCOC(=O)Nc1cnc2[nH]cc(-c3ncc(F)c(N[C@@H](C)c4ccc(F)cc4)n3)c2c1 [Compound 358] |
| 500 to 5000 |  | NCCC[C@H](Nc1nc(-c2c[nH]c3ncc(Cl)cc23)ncc1F)C(=O)O [Compound 403] |
| < 500 |  | OCc1cc(-c2c[nH]c3ncc(Cl)cc23)nc(N2CCNCC2)c1 [Compound 405] |
| < 500 |  | C#Cc1cc(-c2c[nH]c3ncc(Cl)cc23)nc(N2CCNCC2)c1 [Compound 412] |
| 500 to 5000 |  | CC(C)CCNC(=O)[C@H](C)Nc1nc(-c2c[nH]c3ncc(Cl)cc23)ncc1F [Compound 464] |
| < 500 |  | CC[C@H](C)NC(=O)[C@H](C)Nc1nc(-c2c[nH]c3ncc(Cl)cc23)ncc1F [Compound 465] |
| 500 to 5000 |  | C[C@H](Nc1nc(-c2c[nH]c3ncc(Cl)cc23)ncc1F)C(=O)NCCC(=O)O [Compound 466] |
| < 500 |  | CNC(=O)CCNC(=O)[C@H](C)Nc1nc(-c2c[nH]c3ncc(Cl)cc23)ncc1F [Compound 467] |
| < 500 |  | CC(C)NC(=O)CCNC(=O)[C@H](C)Nc1nc(-c2c[nH]c3ncc(Cl)cc23)ncc1F [Compound 468] |
| < 500 |  | CC(C)NS(=O)(=O)CCNC(=O)[C@H](C)Nc1nc(-c2c[nH]c3ncc(Cl)cc23)ncc1F [Compound 469] |
